# Measured values: PMC6352937, “Inhibition of protein phosphatase-1 and -2A by ellagitannins: structure-inhibitory potency relationships and influences on cellular systems” (Journal of Enzyme Inhibition and Medicinal Chemistry, 2019)
# Tests used:
# PP1c = assay: Protein phosphatase assay with 32P-MLC20, native PP1c; type: biochemical; settings: native PP1c from rabbit skeletal muscle; 1 µM 32P-MLC20; 10 min preincubation; mean ± SD
# Protocol: (§1) Protein phosphatase activity of either skeletal muscle PP1c or PP2Ac (1.9–2.2 nM), or rPP1cα or rPP1cδ (2.71–3.72 nM), or FLAG-MYPT1-PP1c (∼9 nM) was assayed at 30 °C in absence or presence of polyphenol compounds (0.1–100 µM) in 20 mM Tris/HCl (pH 7.4), 0.1% 2-mercaptoethanol (30 µL). The purified phosphatase samples or HeLa lysates in 300-fold dilution (1.8–3.6 µg/ml) in the presence or absence of 2 µM I2 were preincubated with increasing concentration of the polyphenol compounds (0–100 µM) for 10 min then the reaction was started by the addition of 1 µM ^32P-MLC20 and incubated for 10 min. Polyphenol-treated HeLa cells were washed then lysed in 50 mM Tris/HCl (pH 8.0), 150 mM NaCl, 1% (V/V) Triton X-100, 0.15% (w/v) protease inhibitor cocktail. The phosphatase activity was assayed with 1 µM ^32P-MLC20 for 30 s in 3-fold final dilution (0.24–0.43 mg/ml). The reactions were terminated by the addition of 200 µL of 10% trichloroacetic acid and 200 µL of 6 mg/mL BSA solution. The samples were centrifuged for 3 min at 10,000 rpm and the supernatants (370 µL) were transferred into scintillation vials and the radioactivity of the released ^32Pi was determined in Tri-Carb 2800TR scintillation counter.
# (§2) The ellagitannins (Figure 1) assayed on the activity of PP1c or PP2Ac in this study are similar to PGG in composition, but they differ structurally in two important aspects: (i) all of them include hexahydroxydiphenoyl unit linked in various positions, except for pedunculagin which includes two of these linkages; (ii) tellimagrandin I, pedunculagin, and praecoxin B have free glycosidic hydroxyls, while GHG has an unmodified hydroxyl at position 3 of the glucopyranose ring. […] Inhibition of the phosphatase activity by ellagitannins in HeLa cell lysate was also assessed. First, we determined the activity of PP1 and PP2A in the lysates using I2 to inhibit PP1, and low concentration of OA (2 nM) to suppress PP2A specifically, in order to determine the contribution of PP1 and PP2A to the phosphatase activity of lysates (Figure 2(E)).
# (§3) Figure 2. The effect of ellagitannins on the activity of PP1 and PP2A. Ellagitannins (0.1–100 µM) were preincubated with the phosphatase samples for 10 min and the phosphatase activity was determined in triplicates with 1 µM ^32P-MLC20 substrate as described in “Materials and methods” section. […] The effect of tellimagrandin I on the activity of rPP1cα (^) and rPP1cδ (●) (C), or FLAG-MYPT1-PP1cδ (▼) (D), or on the phosphatase activity of HeLa lysate in the presence of I2 (□) (F). The effect of I2 and OA on the phosphatase activity of HeLa lysate (E). Phosphatase activity in the absence of ellagitannins, I2 or OA was taken as 100%. Data are means ± SD (n = 3–5).
# HeLa lysate = assay: Phosphatase activity of HeLa cell lysate (32P-MLC20); type: biochemical, human; settings: HeLa lysate in 300-fold dilution; 1 µM 32P-MLC20; mean ± SD
# Protocol: as §1, §2, §3
# PP2Ac = assay: Protein phosphatase assay with 32P-MLC20, native PP2Ac; type: biochemical; settings: native PP2Ac from rabbit skeletal muscle; 1 µM 32P-MLC20; 10 min preincubation; mean ± SD
# Protocol: as §1, §2, §3
# HeLa cells [1] = assay: HeLa cell viability, Alamar-blue assay; type: cell-based, human; settings: 24 h incubation, serum free; 0-50 µM tested
# Protocol: HeLa cells and tsa201 cells were cultured as recommended by the supplier. Prior to treatments HeLa cells were serum starved in MEM medium supplemented with 2 mM L-glutamine for 17 h. For phosphatase activity assay cells were treated with increasing concentration of polyphenol compounds (1–50 µM) for 1 h. To assess cell viability by Alamar-blue assay serum starved cells were treated with ellagitannins (1–50 µM) for 24 h in serum free MEM medium. The media was exchanged for resazurin (20 µM) containing serum free media and the cells were incubated for 2 h to enhance resorufin formation by the viable cells. The emission of resorufin was measured by a fluorimeter at 620 nm.
# Figure 4. Distinct influence of ellagitannins on the survival and phosphatase activity of HeLa cells. The effect of tellimagrandin I and mahtabin A was assayed on the survival (A) and the phosphatase activity (B) of HeLa cells in 0–50 µM concentration range as detailed in Materials and methods. The cell survival and the phosphatase activity in the absence of ellagitannins were taken as 100%. Data represent means ± SD (n = 3). ANOVA *p < .05, **p < .01, ***p < .001, n.s.: not significant.
# rPP1cδ [2] = biological target: T1, rPP1cδ (Homo sapiens, UniProt P62140); assay: Protein phosphatase assay, recombinant rPP1cδ; type: biochemical; settings: purified recombinant hexahistidine-tagged PP1cδ
# T1 construct: hexahistidine; made in house
# Protocol: as §1, with “The reactions were terminated by the addition of 200 µL of 10% trichloroacetic acid and 200 µL of 6 mg/mL BSA solution.” left out
# (§4) Figure 2. […] Ellagitannins (0.1–100 µM) were preincubated with the phosphatase samples for 10 min and the phosphatase activity was determined in triplicates with 1 µM ^32P-MLC20 substrate as described in “Materials and methods” section. […]
# rPP1cα [3] = biological target: T2, rPP1cα (Homo sapiens, UniProt P62136); assay: Isothermal titration calorimetry (ITC); type: binding; settings: 25 °C
# T2 construct: FLAG; made in house
# Protocol: Isothermal titration calorimetry (ITC) experiments were carried out at 25 °C by a MicroCal ITC200 instrument. The assay buffer contains 25 mM Tris/HCl (pH 8.0), 100 mM NaCl, and 1 mM DTT. rPP1cα was dialysed in the assay buffer two times for two hours freshly prior to measurements and diluted to 5–10 µM then transferred into the sample cell of the calorimeter. Tellimagrandin I was diluted to 60–100 µM in the assay buffer and measured into the syringe. 18 times 2 µL ligand was then injected into the cell at a stirring rate of 300 rpm. The reference power was 5 µcal/sec and the assay buffer was loaded in the reference cell. The titration data were analysed with MicroCal ITC-Origin software using one sets of site model to obtain binding parameters of ligand-protein interaction.
# (§5) Figure 3. […] The changes in either, the intrinsic fluorescence of unlabelled rPP1cα upon binding to tellimagrandin I and PGG, or changes in fluorescent signal from rPP1cα extrinsically labelled with NT647 dye upon binding with EGCG, were determined at a range of concentration of polyphenols, and the fractions bound are presented. Data points are means ± SD (n = 3).
# rPP1cα [4] = biological target: T2, rPP1cα; assay: Microscale thermophoresis (MST); type: binding
# Protocol: as §5
# rPP1cα [5] = biological target: T2, rPP1cα; assay: Protein phosphatase assay, recombinant rPP1cα; type: biochemical; settings: purified recombinant FLAG-tagged PP1cα
# Protocol: as §1, with “The reactions were terminated by the addition of 200 µL of 10% trichloroacetic acid and 200 µL of 6 mg/mL BSA solution.” left out
# as §4
# rPP1cδ [6] = biological target: T1, rPP1cδ; assay: Surface plasmon resonance (SPR); type: binding; settings: rPP1cδ immobilised on CM5 chip; 1:1 interaction model
# SNAP-25^Thr138 = assay: Phosphorylation of SNAP-25 Thr138 in cortical synaptosomes (Western blot); type: cell-based, mouse; settings: synaptosomes treated 45 min at 30 °C; ellagitannins 1-100 µM, TMC 10 µM
# Protocol: (§6) Preparation of synaptosomes from murine brain cortex was carried out as described previously. Functional synaptosomes were kept in Krebs buffer (118 mM NaCl, 5 mM KCl, 25 mM NaHCO3, 1 mM MgCl2, 10 mM D-glucose, pH 7.4). After preparation, synaptosomes were treated with either tellimagrandin I or mahtabin A in 1, 10 or 100 µM final concentrations, or with 10 µM tautomycetin (TMC) for 45 min at 30 °C. After the treatments synaptosomes were applied for exocytosis assay or were lysed and the protein lysates were subjected to Western blot. For exocytosis assay an already established protocol[25] was used. FM 2–10 water-soluble styryl dye was incorporated first into the outer leaflet of synaptosome membrane, then into the synaptosomes. Exocytosis was induced by addition of 30 mM KCl to the synaptosomes. The fluorescent intensity of FM 2–10 styryl dye negatively correlated with the extent of synatposomal exocytosis and was measured by Fluoroskan FL (excitation: 488 nm, emission: 540 nm). Western blot of synaptosome proteins was carried out as described previously[24]^,[25].
# Figure 5. […] E: Representative Western blot with anti- SNAP-25^pThr138 specific antibody. F: Relative changes in the amount of SNAP-25^pThr138 determined by densitometry of the Western blots normalised on the bands obtained for the loading controls. Data are means ± SD (n = 3). ANOVA *p < .05, **p < .01, ***p < .001, n.s.: not significant.
# [7] = system: mouse cortical synaptosomes; assay: KCl induced exocytosis of cortical synaptosomes (FM 2-10 dye); type: cell-based; settings: 30 mM KCl; FM 2-10 fluorescence; 45 min treatment
# Protocol: as §6
# Figure 5. […] E: Representative Western blot with anti- SNAP-25^pThr138 specific antibody. F: Relative changes in the amount of SNAP-25^pThr138 determined by densitometry of the Western blots normalised on the bands obtained for the loading controls. Data are means ± SD (n = 3). […]
# PP2A = assay: Phosphatase activity of HeLa lysate in the presence of I2 (activity due to PP2A); type: biochemical, human; settings: PP1 suppressed by 2 µM I2; up to the highest concentration applied (100 µM)
# Protocol: as §1, with “Polyphenol-treated HeLa cells were washed then lysed in 50 mM Tris/HCl (pH 8.0), 150 mM NaCl, 1% (V/V) Triton X-100, 0.15% (w/v) protease inhibitor cocktail. The phosphatase activity was assayed with 1 µM ^32P-MLC20 for 30 s in 3-fold final dilution (0.24–0.43 mg/ml). The reactions were terminated by the addition of 200 µL of 10% trichloroacetic acid and 200 µL of 6 mg/mL BSA solution.” left out
# as §2, with “First, we determined the activity of PP1 and PP2A in the lysates using I2 to inhibit PP1, and low concentration of OA (2 nM) to suppress PP2A specifically, in order to determine the contribution of PP1 and PP2A to the phosphatase activity of lysates (Figure 2(E)).” left out
# FLAG-MYPT1-PP1cδ complex = biological target: T3, FLAG-MYPT1-PP1cδ complex (Homo sapiens, UniProt P62140); assay: Protein phosphatase assay, myosin phosphatase holoenzyme; type: biochemical; settings: holoenzyme ~9 nM
# T3 construct: its associated proteins (such as PP1cδ) were isolated from cell lysates; expressed in transfected cells; host or cells: tsA201 cells
# Protocol: as §1, with “The reactions were terminated by the addition of 200 µL of 10% trichloroacetic acid and 200 µL of 6 mg/mL BSA solution.” left out
# as §4
# HeLa cells [8] = assay: Phosphatase activity of polyphenol-treated HeLa cells; type: cell-based, human; settings: 1 h incubation; 0-50 µM tested
# Protocol: as §1
# HeLa cells and tsa201 cells were cultured as recommended by the supplier. […] The emission of resorufin was measured by a fluorimeter at 620 nm. […]
# T2 sequence (P62136 whole entry): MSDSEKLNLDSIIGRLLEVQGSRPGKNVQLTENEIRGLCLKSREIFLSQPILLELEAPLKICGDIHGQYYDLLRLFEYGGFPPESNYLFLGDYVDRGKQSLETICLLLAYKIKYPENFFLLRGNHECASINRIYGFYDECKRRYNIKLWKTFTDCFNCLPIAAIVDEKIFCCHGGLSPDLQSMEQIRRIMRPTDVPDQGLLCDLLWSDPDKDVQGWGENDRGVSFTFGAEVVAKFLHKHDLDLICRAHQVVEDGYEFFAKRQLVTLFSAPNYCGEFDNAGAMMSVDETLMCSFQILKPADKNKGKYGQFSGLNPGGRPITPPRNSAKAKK
# T1 sequence (P62140 whole entry): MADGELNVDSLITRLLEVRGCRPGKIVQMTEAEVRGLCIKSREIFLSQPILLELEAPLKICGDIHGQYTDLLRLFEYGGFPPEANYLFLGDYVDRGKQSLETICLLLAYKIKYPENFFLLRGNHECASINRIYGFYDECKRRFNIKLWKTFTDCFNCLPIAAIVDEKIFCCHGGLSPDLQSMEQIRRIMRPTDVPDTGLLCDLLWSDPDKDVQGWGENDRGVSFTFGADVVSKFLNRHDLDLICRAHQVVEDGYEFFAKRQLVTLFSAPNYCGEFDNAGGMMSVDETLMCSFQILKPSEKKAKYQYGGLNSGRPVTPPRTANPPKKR
# T3 sequence (P62140 2-327 limits assumed): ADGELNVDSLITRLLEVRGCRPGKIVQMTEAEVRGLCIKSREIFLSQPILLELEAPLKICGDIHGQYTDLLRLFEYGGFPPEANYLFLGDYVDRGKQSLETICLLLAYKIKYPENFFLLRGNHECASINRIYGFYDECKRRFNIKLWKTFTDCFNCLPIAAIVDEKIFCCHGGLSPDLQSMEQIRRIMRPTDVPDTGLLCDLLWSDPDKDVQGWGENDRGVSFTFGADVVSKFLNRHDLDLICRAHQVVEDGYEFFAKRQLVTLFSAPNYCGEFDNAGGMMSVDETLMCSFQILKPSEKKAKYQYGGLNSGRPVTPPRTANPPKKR
# T3 sequence (O14974 whole entry partner): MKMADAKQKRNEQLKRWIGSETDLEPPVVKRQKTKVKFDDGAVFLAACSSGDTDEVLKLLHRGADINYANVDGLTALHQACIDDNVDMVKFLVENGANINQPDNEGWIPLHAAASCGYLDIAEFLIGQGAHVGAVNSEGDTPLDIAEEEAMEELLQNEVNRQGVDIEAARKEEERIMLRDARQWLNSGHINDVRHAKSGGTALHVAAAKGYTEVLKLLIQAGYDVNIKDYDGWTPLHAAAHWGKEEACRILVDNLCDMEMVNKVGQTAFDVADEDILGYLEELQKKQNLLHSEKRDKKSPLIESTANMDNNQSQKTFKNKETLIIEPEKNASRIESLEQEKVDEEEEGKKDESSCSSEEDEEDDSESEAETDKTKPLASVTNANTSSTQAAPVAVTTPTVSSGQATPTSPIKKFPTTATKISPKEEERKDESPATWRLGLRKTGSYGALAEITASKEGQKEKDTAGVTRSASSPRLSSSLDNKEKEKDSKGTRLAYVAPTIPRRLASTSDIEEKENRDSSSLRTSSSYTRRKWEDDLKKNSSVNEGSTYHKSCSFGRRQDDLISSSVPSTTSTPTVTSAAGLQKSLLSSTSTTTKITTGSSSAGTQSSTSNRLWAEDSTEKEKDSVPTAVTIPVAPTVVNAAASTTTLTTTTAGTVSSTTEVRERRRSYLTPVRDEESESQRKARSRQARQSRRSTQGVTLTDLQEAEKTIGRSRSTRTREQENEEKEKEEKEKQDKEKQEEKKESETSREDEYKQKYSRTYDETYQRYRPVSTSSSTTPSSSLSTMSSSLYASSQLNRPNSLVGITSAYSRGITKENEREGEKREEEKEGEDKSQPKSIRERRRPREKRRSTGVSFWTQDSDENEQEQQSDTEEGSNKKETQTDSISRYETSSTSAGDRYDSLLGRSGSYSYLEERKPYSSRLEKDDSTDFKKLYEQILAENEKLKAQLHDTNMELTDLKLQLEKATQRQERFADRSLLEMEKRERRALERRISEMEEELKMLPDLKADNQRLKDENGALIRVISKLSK
compound,measurement,setting,value
O=C(OC[C@H]1OC(O)[C@@H]2OC(=O)c3cc(O)c(O)c(O)c3-c3c(cc(O)c(O)c3O)C(=O)O[C@H]2[C@@H]1OC(=O)c1cc(O)c(O)c(O)c1)c1cc(O)c(O)c(O)c1 (stereo partly shown) [praecoxin B],IC50,PP1c,790 ± 110 nM
same,IC50,HeLa lysate,6970 ± 1120 nM
same,IC50,PP2Ac,63900 ± 5520 nM
O=C(O[C@H]1[C@@H]2OC(=O)c3cc(O)c(O)c(O)c3-c3c(cc(O)c(O)c3O)C(=O)OC[C@H]2OC(O)[C@@H]1OC(=O)c1cc(O)c(O)c(O)c1)c1cc(O)c(O)c(O)c1 (stereo partly shown) [tellimagrandin I],Effect on viability (survival) of HeLa cells,HeLa cells [1],suppressed the viability of HeLa cells dramatically
same,IC50,PP1c,200 ± 20 nM
same,IC50,HeLa lysate,4460 ± 950 nM
same,IC50,rPP1cδ [2],130 ± 20 nM
same,Ka (ITC),rPP1cα [3],4.68 ± 1.02x10^6 M^−1
same,S (ITC),rPP1cα [3],0.0036 kcal/mol/K
same,N (ITC),rPP1cα [3]; binding stoichiometry,1.16 ± 0.03
same,Kd,rPP1cα [3]; one sets of site model,230 nM
same,Kd,"rPP1cα [4]; unlabelled rPP1cα, intrinsic fluorescence (NT.LabelFree)",1780 ± 590 nM
same,IC50,rPP1cα [5],230 ± 50 nM
same,Kd,rPP1cδ [6],310 nM
same,Effect on phosphorylation level of SNAP-25^Thr138,SNAP-25^Thr138,had no any effect
same,Effect on KCl induced synaptosomal exocytosis,[7],without any influence
same,IC50,PP2Ac,19500 ± 8600 nM
same,Inhibition of phosphatase activity due to PP2A in HeLa lysate,PP2A,slightly
same,IC50,FLAG-MYPT1-PP1cδ complex,110 ± 20 nM
same,Effect on phosphatase activity of HeLa cells,HeLa cells [8],partially reduced the phosphatase activity
epigallocatechin-3-gallate [EGCG],Kd,rPP1cα [4]; rPP1cα labelled with NT-647 (NT.115),8200 ± 4300 nM
"tautomycetin [TMC, reference compound]",Effect on phosphorylation level of SNAP-25^Thr138,SNAP-25^Thr138,increased the amount of SNAP-25^pThr138
